Active and inactive are the calls of the source. No cut-off for these calls is given here.
Experiments:
Assay type in all cases: functional, cell-based
K562 [1] = assay: Cytotoxicity against human K562 cells assessed as growth inhibition after 72 hrs by MTT assay; conditions: K562, 72 h
SUP-T1 = assay: Cytotoxicity against human SupT1 cells assessed as growth inhibition after 72 hrs by MTT assay; conditions: SUP-T1, 72 h
U-937 [2] = assay: Cytotoxicity against human U937 cells assessed as growth inhibition after 72 hrs by MTT assay; conditions: U-937, 72 h
MOLT-4 = assay: Cytotoxicity against human MOLT4 cells assessed as growth inhibition after 72 hrs by MTT assay; conditions: MOLT-4, 72 h
U-937 [3] = assay: Cytotoxicity against human U937 cells assessed as growth inhibition at 20 ug/ml after 72 hrs by MTT assay
K562 [4] = assay: Cytotoxicity against human K562 cells assessed as growth inhibition at 20 ug/ml after 72 hrs by MTT assay

Row | SMILES | IC50 (K562 [1]) [nM] | IC50 (SUP-T1) [nM] | IC50 (U-937 [2]) [nM] | IC50 (MOLT-4) [nM] | growth inhibition (GI) (U-937 [3]) | growth inhibition (GI) (K562 [4])
1 | COc1cccc2c1C(=O)c1c(O)c3c(c(O)c1C2=O)C[C@@](O)(C(=O)CO)C[C@@H]3O[C@H]1C[C@H](N)[C@H](O)[C@H](C)O1 [DOXORUBICIN] | 280 | 40 | 420 |  |  | 
2 | C=C(CC[C@@H](C)[C@H]1CC[C@H]2[C@@H]3CC=C4C[C@@H](O)CC[C@]4(O)[C@H]3CC[C@]12C)C(C)C |  | 25500 |  | 18300 | inactive | inactive

— ChEMBL document CHEMBL4428112, “Columnaristerol A, a novel 19-norsterol from the Formosan octocoral Nephthea columnaris” (Bioorg Med Chem Lett, 2016)
